Measured values as given in patent US8268827B2, “Pyridazinone derivatives as PARP inhibitors” (Istituto di Ricerche di Biologia Molecolare P. Angeletti …, priority 2007, dated 2012).
Where a name gives a salt, the structure may show the parent alone.

Test system: BRCA-1 silenced HeLa cells (HeLa shBRCA1-GFP)
Assay: Proliferation assay in BRCA-1 silenced HeLa cells
Type: cell-based
Details: Homo sapiens; BRCA1 silenced HeLa cells, 168 hours; read-out: CC50 in the BRCA1 silenced HeLa cells
Method in brief: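 Antiproliferative effect was read by Celltiter Blue fluorescence after 168 h of compound treatment at 37° C., 5% CO2. Cells were matched HeLa pairs, BRCA1-shRNA (>80% silenced, GFP) versus non-shRNA vector control, in DMEM with 10% FCS.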

SMILES	CC50 [nM]
Cc1c(Cc2ccc(F)c(C(=O)N3CC(=O)N(c4ccc(Cl)c(F)c4)[C@@H](C)C3)c2)n[nH]c(=O)c1C [Example 208, 6-(3-{[(3S)-4-(4-Chloro-3-fluorophenyl)-3-methyl-5-oxopiperazin-1-yl]carbonyl}-4-fluorobenzyl)-4,5-dimethylpyridazin-3(2H)-one]	< 50
Cc1c(Cc2ccc(F)c(C(=O)N3CC(=O)N(C4CC(F)(F)C4)[C@@H](C)C3)c2)n[nH]c(=O)c1C [Example 209, 6-(3-{[(3S)-4-(3,3-Difluorocyclobutyl)-3-methyl-5-oxopiperazin-1-yl]carbonyl}-4-fluorobenzyl)-4,5-dimethylpyridazin-3(2H)-one]	< 50

Target: T1, PARP-1 (Homo sapiens, UniProt P09874)
T1 construct: purchased Trevigen 4668-500-01
T1 sequence (P09874 whole entry): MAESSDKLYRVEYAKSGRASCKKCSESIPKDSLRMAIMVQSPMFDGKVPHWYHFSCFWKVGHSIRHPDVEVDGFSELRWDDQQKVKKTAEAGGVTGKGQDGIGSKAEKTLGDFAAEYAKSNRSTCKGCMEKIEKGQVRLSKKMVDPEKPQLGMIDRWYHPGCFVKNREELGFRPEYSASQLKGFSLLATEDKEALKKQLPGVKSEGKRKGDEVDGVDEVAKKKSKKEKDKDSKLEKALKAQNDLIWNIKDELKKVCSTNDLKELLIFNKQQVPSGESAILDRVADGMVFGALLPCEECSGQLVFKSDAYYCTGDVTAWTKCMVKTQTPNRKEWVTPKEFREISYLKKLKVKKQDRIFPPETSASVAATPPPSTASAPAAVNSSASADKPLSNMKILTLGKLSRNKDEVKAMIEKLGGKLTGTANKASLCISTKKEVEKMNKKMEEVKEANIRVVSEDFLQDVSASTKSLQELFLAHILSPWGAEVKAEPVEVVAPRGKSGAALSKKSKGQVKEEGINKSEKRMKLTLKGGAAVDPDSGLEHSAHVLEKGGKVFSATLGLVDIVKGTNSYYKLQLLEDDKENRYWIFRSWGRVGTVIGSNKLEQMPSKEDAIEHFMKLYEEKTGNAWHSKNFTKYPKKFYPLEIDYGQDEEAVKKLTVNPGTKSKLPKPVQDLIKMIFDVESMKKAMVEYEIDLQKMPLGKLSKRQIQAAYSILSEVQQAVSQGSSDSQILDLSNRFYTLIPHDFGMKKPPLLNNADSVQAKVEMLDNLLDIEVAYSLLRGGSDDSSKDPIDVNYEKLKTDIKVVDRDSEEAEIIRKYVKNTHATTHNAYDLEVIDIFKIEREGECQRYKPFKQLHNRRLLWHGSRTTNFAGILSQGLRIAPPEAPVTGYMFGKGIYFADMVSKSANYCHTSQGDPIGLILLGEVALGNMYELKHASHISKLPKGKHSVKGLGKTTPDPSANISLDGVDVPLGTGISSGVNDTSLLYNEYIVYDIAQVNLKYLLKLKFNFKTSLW
Assay: PARP-1 SPA assay
Type: biochemical
Details: not given
Experimental: Assay buffer: 100 mM Tris pH 8, 4 mM MgCl2, 4 mM Spermine, 200 mM KCl, 0.04% Nonidet P-40.
Nicotinamide-adenine dinucleotide (NAD)/DNA Mix: [^3H-NAD] (250 uCi/ml, 0.4 ul, Perkin-Elmer NET-443H), NAD (1.5 mM, 0.05 ul, SIGMA N-1511), Biotinylated-NAD (250 uM, 0.03 ul, Trevigen 4670-500-01), Activated calf thymus (1 mg/ml, 0.05 ul, Amersham Biosciences 27-4575), H2O (to 10 ul).
Developing Mix: Streptavidin SPA beads (5 mg/ml, Amersham Biosciences RPNQ 0007) dissolved in 500 mM EDTA.
The reaction is performed in 96-well microplate with a final volume of 50 uL/well. Add 5 ul 5% DMSO/compound solution, add enzyme mix (35 ul), start the reaction by adding NAD/DNA mix (10 uL) and incubate for 2 hrs at RT. Stop the reaction by adding developing mix (25 ul) and incubate 15 min at RT. Measure using a Packard TOP COUNT instrument.

IC50 [nM]	SMILES
5 to 25	Cc1c(Cc2ccc(F)c(C(=O)N3CCN([C@H]4CC[C@H](F)C4)C(=O)C3)c2)n[nH]c(=O)c1C (relative stereo) [Example 212, 6-[4-Fluoro-3-({4-[(trans)-3-fluorocyclopentyl]-3-oxopiperazin-1-yl}carbonyl)benzyl]-4,5-dimethylpyridazin-3(2H)-one]
5 to 25	Cc1c(Cc2ccc(F)c(C(=O)N3CCN(C)C(=O)C3)c2)n[nH]c(=O)c1C [Example 7, 3-{4-Fluoro-3-[(4-methyl-3-oxopiperazin-1-yl)carbonyl]benzyl}-4,5-dimethyl-6-oxo-1,6-dihydropyridazin-1-ium trifluoroacetate]
5 to 25	COC(=O)CN1CCN(C(=O)c2cc(Cc3n[nH]c(=O)c(C)c3C)ccc2F)CC1=O [Example 24, Methyl (4-{5-[(4,5-dimethyl-6-oxo-1,6-dihydropyridazin-3-yl)methyl]-2-fluorobenzoyl}-2-oxopiperazin-1-yl)acetate trifluoroacetate]
5 to 25	Cc1c(Cc2ccc(F)c(C(=O)N3CCCN(C4CCCCC4)C(=O)C3)c2)n[nH]c(=O)c1C [Example 34, 6-{3-[(4-Cyclohexyl-3-oxo-1,4-diazepan-1-yl)carbonyl]-4-fluorobenzyl}-4,5-dimethyl-3-oxo-2,3-dihydropyridazin-1-ium trifluoroacetate]
25 to 150	Cc1c(Cc2ccc(F)c(C(=O)N3CCN(C4CCCCC4)C(=O)C3(C)C)c2)n[nH]c(=O)c1C [Example 37, 3-{3-[(4-Cyclohexyl-2,2-dimethyl-3-oxopiperazin-1-yl)carbonyl]-4-fluorobenzyl}-4,5-dimethyl-6-oxo-1,6-dihydropyridazin-1-ium trifluoroacetate]
25 to 150	Cc1c(Cc2ccc(F)c(C(=O)N3C[C@@H]4C[C@H]3C(=O)N4c3ccccc3)c2)n[nH]c(=O)c1C [Example 41, (1S,4S)-5-{5-[(4,5-Dimethyl-6-oxo-1,6-dihydropyridazin-3-yl)methyl]-2-fluorobenzoyl}-2-phenyl-2,5-diazabicyclo[2.2.1]heptan-3-one trifluoroacetate]
5 to 25	Cc1c(Cc2ccc(F)c(C(=O)N3CCN(CCF)C(=O)C3)c2)n[nH]c(=O)c1C [Example 58, 6-(4-Fluoro-3-{[4-(2-fluoroethyl)-3-oxopiperazin-1-yl]carbonyl}benzyl)-4,5-dimethyl-3-oxo-2,3-dihydropyridazin-1-ium trifluoroacetate]
25 to 150	Cc1c(Cc2ccc(F)c(C(=O)N3CCCN(C4CC4)C(=O)C3)c2)n[nH]c(=O)c1C [Example 82, 1-Cyclopropyl-4-{5-[(4,5-dimethyl-6-oxo-1,6-dihydropyridazin-3-yl)methyl]-2-fluorobenzoyl}-1,4-diazepan-2-one]
25 to 150	Cc1c(Cc2ccc(F)c(C(=O)N3CC(=O)N(C4CCCCC4)CC3(C)C)c2)n[nH]c(=O)c1C [Example 93, 3-{3-[(4-Cyclohexyl-2,2-dimethyl-5-oxopiperazin-1-yl)carbonyl]-4-fluorobenzyl}-4,5-dimethyl-6-oxo-1,6-dihydropyridazin-1-ium trifluoroacetate]
5 to 25	CCN1CCN(C(=O)c2cc(Cc3n[nH]c(=O)c(C(F)(F)F)c3C)ccc2F)CC1=O [Example 143, 6-{3-[(4-Ethyl-3-oxopiperazin-1-yl)carbonyl]-4-fluorobenzyl}-5-methyl-4-(trifluoromethyl)pyridazin-3(2H)-one]
